This note sets out measurements from patent publication US9273095B2, “Antibiotic peptide and preparation method therefor and application therefor” (priority 2011, dated 2016).

In one series the test system is aspergillus flavous. Briefly: microbe, parasite or virus in culture. It counts as cell-based. How it is done: (§1) • (1) Test strains: monilia albicans (candida albicans), candida glabrata, candida krusei, candida tropicalis, aspergillus fumigatus and flavous. Antimicrobial peptides PL-13 (SEQ ID NO: 1) under test are supplied by Jiangsu ProteLight Pharmaceutical & Biotechnology Co., LTD. […] Activation of bacterial strains is conducted at a humidity level of 60% and 25° C. (for aspergillus) or 37° C. (for candida). (2) 0.9% stroke-physiological saline solution comprising 0.5% Tween-80 is used to prepare bacterial suspension for experiment. Hemocytometer is utilized to adjust concentration of the bacterial suspension to 1-3×10^6 CFU/ml (0.5 McFarland units) to make stock solution in reserve at -20° C. During the sensitivity test, the RPMI-1640 liquid medium is diluted 1000 times to 1-3×10^3 CFU/ml. (3) The RPMI-1640 liquid is utilized as diluent to 10-fold dilute stock solution of peptides. […] The eleventh orifice is used as living control orifice, while the twelfth one as blank control. (4) The RPMI-1640 liquid is utilized as diluent to 10-fold dilute stock solution of FCZ and ICZ. […] Ditto for other operations.

For a further series, the system named is aspergillus fumigatus. In words: microbe, parasite or virus in culture. The class given is cell-based. How it is done: as §1
In the next series the test system is candida tropicalis. Briefly: microbe, parasite or virus in culture. The class given is cell-based. How it is done:
as §1

The test system of another series is candida albicans. In words: microbe, parasite or virus in culture. It counts as cell-based. How it is done:
as §1

Another series deals with candida glabrata. Briefly: microbe, parasite or virus in culture. The class given is cell-based. The protocol:
as §1

Series [1] in a line: Circular dichroism (CD) spectroscopy, helical structure. It counts as physicochemical. As to conditions: for 50% TFE % helix / Benign buffer % helix: relative to ellipticity (100%) of reference peptide in 50% TFE. The protocol:
The mean residue molar ellipticities of peptides are determined by circular dichroism (CD) spectroscopy, using a Jasco J-720 spectropolarimeter (Jasco, Easton, Md.), at 25° C. under benign conditions (50 mM KH2PO4/K2HPO4/100 mM KCl, pH7), as well as in the presence of an α-helix inducing solvent, 2,2,2-trifluoroethanol (TFE) (50 mM KH2PO4/K2HPO4/100 mM KCL, pH 7 buffer/50% TFE). A 10-fold dilution of a 500 μM stock solution of the peptide is loaded into a 0.02 cm fused silica cell and its mean residue molar ellipticity scanned from 190 to 250 nm. The values of mean residue molar ellipticities of the peptide at a wavelength of 222 nm are used to estimate the relative amount of α-helicity of the peptides.
To determine the secondary structure of peptides in different environments, circular dichroism (CD) spectra of the peptide analogs are measured under physiologically related pH and ionic strength (100 mM KCl, 50 mM aq. PO4, pH 7 referred to as benign conditions) and also in 50% TFE to mimic the hydrophobic environment of the membrane. CD spectra of the peptide analogs are measured under benign conditions (100 mM KCl, 50 mM KH2PO4/K2HPO4, pH 7, referred to as KP buffer) and also in 50% trifluoroethanol (TFE) to mimic the hydrophobic environment of the membrane. […] However, in the presence of 50% TFE, all three L-peptides are fully folded α-helical structures with similar molar ellipticities and helicity.
FIG. 2 illustrates graphical results of Circular dichroism (CD) spectra of peptides at pH 7.4 and 25° C., in 50 mM aq. PO4 containing 100 mM KCl, wherein KP buffer (50 mM KH2PO4, K2HPO4, 100 mM KCl, pH 7.4) mimics hydrophilic environment and KP buffer-TFE (1:1 [vol/vol]) mimics hydrophobic environment of cell membrane. The figure above represents the CD spectra of peptides in benign buffer without TFE, whilst the figure below represents CD spectra obtained in the presence of 50% TFE.

The nature of series [2]: RP-HPLC temperature profiling: hydrophobicity and self-association. The class given is physicochemical. As to conditions: for tR(min) 5° C. / tR(min) 80° C.: RP-HPLC temperature profiling; for PA (min), association parameter: maximal normalized retention time difference within 5-80° C., self-association ability; for tR(min) Max: maximal retention time during temperature profiling 5-80° C.; for ΔtR(X-Peptide C)(min) 5° C.: retention time difference to control peptide C at 5° C.; for ΔtR(X-Peptide C)(min) 5° C. / ΔtR(X-Peptide C)(min) 80° C.: relative hydrophobicity; for ΔtR(X-Peptide C)(min) 80° C.: retention time difference to control peptide C at 80° C.; for Hydrophobicity tR5: retention time in RP-HPLC at pH 2, 5° C.; for Hydrophobicity tR80: retention time in RP-HPLC at pH 2, 80° C. How it is done:
Peptides are analyzed on an Agilent 1200 series liquid chromatograph (Little Falls, Del.). Runs are performed on a Zorbax 300 SB-C8 column (150×4.6 mm I.D.; 5 μm particle size, 300 Å pore size) from Agilent Technologies using linear AB gradient (1% acetonitrile/min) and a flow rate of 1 ml/min, where solvent A is 0.05% aqueous TFA, pH 2 and solvent B is 0.05% TFA in acetonitrile.
We further use temperature profiling during RP-HPLC to determine the self-association ability of various analogs of PL-13 (SEQ ID NO: 1) which would occur through interaction of the non-polar faces of these amphipathic peptides α-helices. We use 50% TFE aqueous acetonitrile and hydrophobic conditions in the reversed-phase column (hydrophobic stationary phase and the hydrophobic organic solvent in the mobile phase) since the hydrophobic environment of a reversed-phase column also could induce α-helical structure. Since its introduction, the technique of RP-HPLC temperature profiling has been applied on several types of molecules, including cyclic β-sheet peptides, monomeric α-helices and α-helices that dimerize, as well as α-helices that dimerize to form coiled-coils. Although peptides are eluted from a reversed-phase column mainly by an adsorption/desorption mechanism, even a peptide strongly bound to a hydrophobic stationary phase will partition between the matrix and the mobile phase when the acetonitrile content becomes high enough during gradient elution. In summary, the mechanism is based on four assumptions: (i) at low temperature, just as an amphipathic α-helical peptide is able to dimerize in aqueous solution (through its hydrophobic, non-polar face), it will dimerize in solution during partitioning in reversed-phase chromatography; (ii) at higher temperatures, the monomer-dimer equilibrium favors the monomer as the dimer is disrupted; (iii) at sufficiently high temperatures, only monomer is present in solution; and (iv) peptide is always bound in its monomeric helical form to the hydrophobic stationary phase, i.e., the dimer can only be present in solution and disruption of the dimer is required for rebinding to the RP-HPLC matrix.
([θ]222=−3,950). Since peptide C is a monomeric random coil peptide in both aqueous and hydrophobic media, its retention behavior over the temperature range 5-80° C. represents only general temperature effects on peptide retention behavior, i.e., a linear decrease in peptide retention time with increasing temperature due to greater solute diffusivity and enhanced mass transfer between the stationary and mobile phases at higher temperatures. Thus, after normalization to the retention times of peptide C, the retention behavior of the peptides only represents peptide self-association ability. Note that the higher the PA value, the greater the self-association ability. The order of peptide self-association ability of the three pairs of peptide enantiomers is identical to the order of peptide hydrophobicity. Apart from the decrease in retention time due to the general temperature effects noted above, destruction of the α-helix will also occur with increasing temperature, resulting in reduced retention times as the peptides become increasingly random coils.
The retention time data for the peptides is shown in Table 6 which records retention times at 5° C., the maximal retention times and retention times at 80° C. during the temperature profiling. Temperatures of 5-80° C. are the lower and upper temperature limits of temperature profiling in RP-HPLC, representing polymerization of the peptides at 5° C. and the monomerization of peptides at 80° C. due to denaturation of peptides by high temperature and dissociation of the polymers. The maximal retention times represent the threshold points at which peptides totally transform from polymeric to monomeric form. […]

Values after ≈ are worked out from the molar mass of the structure shown. Non-standard residues stand in square brackets, D forms with d. Residues, ends and D or L forms follow the SMILES beside them.

“Ac-FKKLKKLFSKLWNWKK-NH2 (N-terminus and C-terminus assumed) [PL-48]”: the results for the Minimal inhibitory concentration in the series on aspergillus flavous, in the series with aspergillus fumigatus and with candida tropicalis were above 64 µg/mL, 32 µg/mL and 8 µg/mL, respectively.
With “Ac-KKLKKLFSKLWNW-NH2 (N-terminus and C-terminus assumed) [PL-30]”, the results for the Minimal inhibitory concentration in the series with aspergillus flavous, with candida albicans and in the series with candida glabrata were above 64 µg/mL, 16 µg/mL and 32 µg/mL, respectively.
For `CC(=O)N[C@H](CCCCN)C(=O)N[C@H](CC(C)C)C(=O)N[C@H](CCCCN)C(=O)N[C@H](CCCCN)C(=O)N[C@H](CC(C)C)C(=O)N[C@H](Cc1ccccc1)C(=O)N[C@H](CO)C(=O)N[C@H](CCCCN)C(=O)N[C@H](CC(C)C)C(=O)N[C@H](Cc1c[nH]c2ccccc12)C(=O)N[C@H](CC(N)=O)C(=O)N[C@H](Cc1c[nH]c2ccccc12)C(=O)N[C@H](CCCCN)C(N)=O` [PL-40] (Ac-[dK][dL][dK][dK][dL][dF][dS][dK][dL][dW][dN][dW][dK]-NH2; N-terminus and C-terminus assumed), in series [1], the “50% TFE % helix” value worked out at 70.7% and the “Benign buffer % helix” value is given as 6.0%. In series [2], the “tR(min) 5° C.” value was determined as 33.16 min; the “tR(min) 80° C.” value is reported as 30.94 min; the “PA (min), association parameter” value stood at 0.55 min; the “tR(min) Max” value is 33.16 min. Moreover, in series [2], the “ΔtR(X-Peptide C)(min) 5° C.” value is 10.60 min, the “ΔtR(X-Peptide C)(min) 80° C.” value was 11.01 min, the “Hydrophobicity tR5” value was found to be 33.16 min and the “Hydrophobicity tR80” value is listed as 30.94 min. This compound also gave a Minimal inhibitory concentration in the series with aspergillus flavous above 64 µg/mL. Further, the Minimal inhibitory concentration with candida albicans worked out at 16 µg/mL (≈ 9.09 µM).
As to `CC(=O)N[C@H](CC(C)C)C(=O)N[C@H](Cc1ccccc1)C(=O)N[C@H](CCCCN)C(=O)N[C@H](CCCCN)C(=O)N[C@H](CC(C)C)C(=O)N[C@H](CCCCN)C(=O)N[C@H](CCCCN)C(=O)N[C@H](CC(C)C)C(=O)N[C@H](Cc1ccccc1)C(=O)N[C@H](CO)C(=O)N[C@H](CCCCN)C(=O)N[C@H](CC(C)C)C(=O)N[C@H](Cc1c[nH]c2ccccc12)C(=O)N[C@H](CC(N)=O)C(=O)N[C@H](Cc1c[nH]c2ccccc12)C(=O)N[C@H](CCCCN)C(N)=O` [PL-51] (Ac-[dL][dF][dK][dK][dL][dK][dK][dL][dF][dS][dK][dL][dW][dN][dW][dK]-NH2; N-terminus and C-terminus assumed), in series [1], the “50% TFE % helix” value was determined as 100.0% and the “Benign buffer % helix” value is 16.8%. In addition, in series [1] (mean residue molar ellipticity at 222 nm, 25° C., buffer containing 50% TFE), the “50% TFE [θ]222” value is recorded as 28200 deg · cm^2 · dmol^−1. In series [2], the “tR(min) 5° C.” value is reported as 42.59 min; the “tR(min) 80° C.” value was determined as 41.35 min; the “PA (min), association parameter” value came to 1.63 min; the “tR(min) Max” value came to 42.96 min. Further, in series [2], the “ΔtR(X-Peptide C)(min) 5° C.” value was found to be 20.02 min, the “ΔtR(X-Peptide C)(min) 80° C.” value was found to be 21.42 min, the “Hydrophobicity tR5” value stood at 42.59 min and the “Hydrophobicity tR80” value came out at 41.35 min. In the series on aspergillus flavous, this compound showed a Minimal inhibitory concentration above 64 µg/mL.
On to “Ac-FKKLKKKFSKLWNWK-NH2 (N-terminus and C-terminus assumed) [PL-23]”, for which the Minimal inhibitory concentration with aspergillus flavous was above 64 µg/mL; in the series on aspergillus fumigatus, 64 µg/mL; in the series with candida albicans it was 16 µg/mL; with candida glabrata it was 32 µg/mL.
The compound `CC(=O)N[C@H](Cc1ccccc1)C(=O)N[C@H](CCCCN)C(=O)N[C@H](CCCCN)C(=O)N[C@H](CC(C)C)C(=O)N[C@H](CCCCN)C(=O)N[C@H](CCCCN)C(=O)N[C@H](CC(C)C)C(=O)N[C@H](Cc1ccccc1)C(=O)N[C@H](CO)C(=O)N[C@H](CCCCN)C(=O)N[C@H](CC(C)C)C(=O)N[C@H](CC(C)C)C(=O)N[C@H](CC(N)=O)C(=O)N[C@H](CC(C)C)C(=O)N[C@H](CCCCN)C(N)=O` [PL-37] (Ac-[dF][dK][dK][dL][dK][dK][dL][dF][dS][dK][dL][dL][dN][dL][dK]-NH2) registered a Minimal inhibitory concentration with aspergillus flavous above 64 µg/mL.
Regarding “Ac-FKKFKKLLSKLWNWK-NH2 (N-terminus and C-terminus assumed) [PL-32]”, the Minimal inhibitory concentration in the series with aspergillus flavous was above 64 µg/mL; with aspergillus fumigatus, 64 µg/mL; in the series with candida glabrata, 32 µg/mL.
